Measured values from the PolyMetriX glass transition set.

Row | Compound | glass transition temperature
1 | *Oc1ccc(S(=O)(=O)c2ccc(Oc3ccc(C(C)(C)c4ccc(OCCCCOc5ccc(C(C)(C)c6ccc(*)cc6)cc5)cc4)cc3)cc2)cc1 (repeat unit) | 140.00 °C
2 | *C(=O)c1ccc(Oc2ccc(C3(c4ccc(Oc5ccc(C(=O)c6ccc7c(c6)C(=O)N(c6ccc(Oc8ccc(N9C(=O)c%10ccc(*)cc%10C9=O)cc8)cc6)C7=O)cc5)cc4)OC(=O)c4ccccc43)cc2)cc1 (repeat unit) | 260.00 °C
3 | *O[Si](*)(C)CCCOc1ccc(C(=O)Oc2ccc(-c3ccc(OC(=O)c4cc(OCCCCC)c(OCCCCC)c(OCCCCC)c4)cc3)cc2)cc1 (repeat unit) | 49.00 °C
4 | *c1ccc(Oc2ccc(S(=O)(=O)c3ccc(Oc4ccc(-c5c6c(c(*)c7ccccc57)C(=O)N(c5ccccc5-c5ccccc5)C6=O)cc4)cc3)cc2)cc1 (repeat unit) | 278.00 °C
5 | *CC(COC(=O)O*)OCCCCOc1ccc(/C=C/c2ccc([N+](=O)[O-])cc2)cc1 (repeat unit) | 42.00 °C
6 | *c1ccc(Oc2ccccc2Oc2ccc(N3C(=O)c4ccc(Oc5ccccc5Oc5ccc6c(c5)C(=O)N(*)C6=O)cc4C3=O)cc2)cc1 (repeat unit) | 193.00 °C
7 | *CC(*)(C)C(=O)NC1C(O)OC(CO)C(O)C1O (repeat unit) | 90.50 °C
8 | *c1ccc(-c2ccc(-c3cc(-c4ccccc4)c4cc5c(-c6ccccc6)cc(*)nc5cc4n3)cc2)cc1 (repeat unit) | 392.00 °C
9 | *c1c(C)cc(C)c(N2C(=O)c3ccc(Oc4ccc(Oc5ccc6c(c5)C(=O)N(*)C6=O)cc4)cc3C2=O)c1C (repeat unit) | 345.00 °C
10 | *CC(O)COc1ccc(C(C)(C)c2ccc(OCC(O)CN3CCN(*)CC3)cc2)cc1 (repeat unit) | 100.00 °C
11 | *c1cc(-c2sc(-c3cc(CCCCCCCCCCCCCC)c(*)s3)cc2CCCCCCCCCCCCCC)c2cccccc1-2 (repeat unit) | -10.00 °C
12 | *CCCCCCNC(=O)c1ccc(C(C)(CC)c2ccc(C(=O)N*)cc2)cc1 (repeat unit) | 164.00 °C
13 | *Oc1ccc(Oc2ccc(/C=N/CCCCCC/N=C/c3ccc(*)cc3)cc2)cc1 (repeat unit) | 111.00 °C
14 | *c1ccc2c(c1)C(=O)N(c1c(C)c(C)c(N3C(=O)c4ccc(C(*)(C(F)(F)F)C(F)(F)F)cc4C3=O)c(C)c1C)C2=O (repeat unit) | 420.00 °C
15 | *CCCCCCOC(=O)CCCCC(=O)O* (repeat unit) | -69.00 °C
16 | *c1cccc(N/C=C/C(=O)c2cccc(C(=O)/C=C/Nc3cccc(S(*)(=O)=O)c3)c2)c1 (repeat unit) | 215.00 °C
17 | *CC(*)(CC(=O)OCCCCCCCC)C(=O)OCCCCCCCC (repeat unit) | -19.00 °C
18 | *CC(O)COc1c(Cl)cc(C(C)(C)c2cc(Cl)c(OCC(O)COc3ccc(C(C)(C)c4ccc(O*)cc4)cc3)c(Cl)c2)cc1Cl (repeat unit) | 100.00 °C
19 | *CC(O)CN(CCO)CC(O)COc1ccc(C(C)(C)c2ccc(O*)cc2)cc1 (repeat unit) | 87.10 °C
20 | */C=C(\C#N)c1cccc(/C(C#N)=C/c2ccc(/C=C/c3ccc(N(c4ccccc4)c4ccc(N(c5ccccc5)c5ccc(/C=C/c6ccc(*)s6)cc5)cc4)cc3)s2)c1 (repeat unit) | 178.00 °C
21 | *CC(*)(C)C(=O)OCCCCCCOc1ccc(/C=N/c2ccc(C#N)cc2)cc1 (repeat unit) | 35.00 °C
22 | *CC(F)(F)C(F)(F)C(F)(F)C(F)(F)COC(=O)NCCCCCCNC(=O)O* (repeat unit) | -2.00 °C
23 | *CCN(CCOC(=O)Nc1ccc(C)c(NC(=O)O*)c1)c1ccc(-c2nc3ccc([N+](=O)[O-])cc3o2)cc1 (repeat unit) | 156.00 °C
24 | *c1ccc2c(c1)C(CCCCCC)(CCCCCC)c1cc(-c3cc(OCc4ccccc4)c(*)cc3OCc3ccccc3)ccc1-2 (repeat unit) | 73.00 °C
